The molecules below were run on GDF8 signaling (p-SMAD-3 (Ser423/425)) (assay: AlphaScreen SureFire SMAD3 (p-Ser423/425) assay, GDF8-stimulated cells (GDF pSMAD)). Details: MPC11; GDF8-stimulated; p-SMAD3 AlphaScreen; read-out: GDF pSMAD (MPC11) (inhibition of GDF8 signaling).
Format: cell-based
`Nc1ncnc2ccc(-c3cccnc3-c3ccc(F)c(Cl)c3)cc12` [compound 448, 6-(2-(3-Chloro-4-fluorophenyl)pyridin-3-yl)quinazolin-4-amine] gave an IC50 of 0.137 µM.

Same assay, conditions: Mus musculus, MPC-11, GDF8-stimulated pSMAD3, MPC11; tested as the salt form given; read-out: GDF pSMAD (MPC11) (μM), inhibition of GDF8 signaling
`CN(C)C(=O)Oc1cccc(-c2ncccc2-c2ccc3ncnc(N)c3c2)c1` [compound 979, 3-(3-(4-aminoquinazolin-6-yl)pyridin-2-yl)phenyl dimethylcarbamate] gave an IC50 of 14 µM. `Fc1cc(-c2ncccc2-c2ccn3nccc3n2)c(F)c(F)c1F` [compound 1053] showed an IC50 of 0.368 µM. `Cc1cc(C)c(-c2ncccc2-c2ccc3ncnc(N)c3c2)cc1F` [compound 988, 6-(2-(5-fluoro-2,4-dimethylphenyl)pyridin-3-yl)quinazolin-4-amine] gave an IC50 of 1.06 µM. Molecule `CCc1cccc(-c2ncccc2-c2ccc3ncnc(N)c3c2)c1` [compound 1007, 6-(2-(3-ethylphenyl)pyridin-3-yl)quinazolin-4-amine] has an IC50 of 0.223 µM. `Cc1cc2ncnc(N)c2cc1-c1cccnc1-c1cc(Cl)ccc1F` [compound 981, 6-(2-(5-chloro-2-fluorophenyl)pyridin-3-yl)-7-methylquinazolin-4-amine] gave an IC50 of 9.34 µM.

Same assay, conditions: Mus musculus, MPC-11, MPC11; GDF8-stimulated; p-SMAD3 AlphaScreen; read-out: GDF pSMAD (MPC11) (inhibition of GDF8 signaling)
For `Cc1cccc(-c2ncccc2-c2ccc3ncnc(N4CCOCC4)c3c2)c1` [compound 386, 4-(6-(2-(m-Tolyl)pyridin-3-yl)quinazolin-4-yl)morpholine], the IC50 was 2 µM. `Cc1cc(-c2nc3c(cc2-c2ccc4[nH]ncc4c2)N(C)CCO3)ccc1F` [compound 300, 6-(4-Fluoro-3-methylphenyl)-7-(1H-indazol-5-yl)-1-methyl-2,3-dihydro-1H-pyrido[2,3-b][1,4]oxazine] showed an IC50 of 12.8 µM. For `Cc1cccc(-c2ncccc2-c2ccc3nccc(N4CCOCC4)c3c2)c1` [compound 548, 4-(6-(2-(m-Tolyl)pyridin-3-yl)quinolin-4-yl)morpholine], the IC50 was 16.4 µM. Molecule `CCc1ncc(CNc2cnc(-c3ccc(F)c(C)c3)c(-c3ccc4ncsc4c3)c2)[nH]1` [compound 323, 5-(Benzo[d]thiazol-6-yl)-N-((2-ethyl-1H-imidazol-5-yl)methyl)-6-(4-fluoro-3-methylphenyl)pyridin-3-amine] has an IC50 of 0.327 µM. Work on `Cc1cccc(-c2ncccc2-c2cc(C)c3[nH]ncc3c2)c1` [Compound 176, 7-Methyl-5-(2-m-tolylpyridin-3-yl)-1H-indazole] yielded an IC50 of 0.057 µM. `COc1ccnc2ccc(-c3cccnc3-c3cc(Cl)c(F)cc3F)cc12` [compound 842, 6-(2-(5-Chloro-2,4-difluorophenyl)pyridin-3-yl)-4-methoxyquinoline] was tested, and the IC50 was 17.4 µM. `Cc1cc(-c2ncc(NCc3ccc(-c4cccnc4)nc3)cc2-c2ccc3ncsc3c2)ccc1F` [compound 328, N-([2,3′-Bipyridin]-5-ylmethyl)-5-(benzo[d]thiazol-6-yl)-6-(4-fluoro-3-methylphenyl)pyridin-3-amine] gave an IC50 of 2.5 µM. With `Cn1cnc2ccc(-c3cccnc3-c3cccc(Cl)c3)cc2c1=O` [compound 391, 6-(2-(3-Chlorophenyl)pyridin-3-yl)-3-methylquinazolin-4(3H)-one] the IC50 was 0.228 µM. `Nc1noc2ccc(-c3cccnc3-c3ccc(F)c(Cl)c3)cc12` [compound 796, 5-(2-(3-Chloro-4-fluorophenyl)pyridin-3-yl)benzo[d]isoxazol-3-amine] gave an IC50 of 14 µM. `Cc1cc(-c2ncc(NCc3nccs3)cc2-c2ccc3ncsc3c2)ccc1F` [compound 326, 5-(Benzo[d]thiazol-6-yl)-6-(4-fluoro-3-methylphenyl)-N-(thiazol-2-ylmethyl)pyridin-3-amine] showed an IC50 of 0.198 µM. `CC(C)c1cccc(-c2ncccc2-c2ccc3ncnc(N)c3c2)c1` [compound 478, 6-(2-(3-Isopropylphenyl)pyridin-3-yl)quinazolin-4-amine] showed an IC50 of 6.6 µM. Molecule `c1cc(-c2ncccc2-c2ccc3ncnc(N4CCOCC4)c3c2)cc(C2CC2)c1` [compound 387, 4-(6-(2-(3-Cyclopropylphenyl)pyridin-3-yl)quinazolin-4-yl)morpholine] has an IC50 of 1.28 µM. `c1cc(-c2ncccc2-c2ccc3ncccc3n2)cc(C2CC2)c1` [compound 537, 2-(2-(3-Cyclopropylphenyl)pyridin-3-yl)-1,5-naphthyridine] was tested, and the IC50 was 0.111 µM. With `Fc1ccc(-c2ncccc2-c2ccc3cn[nH]c3c2)cc1F` [Compound 98, 6-(2-(3,4-Difluorophenyl)pyridin-3-yl)-1H-indazole] the IC50 was 10.3 µM. Molecule `Cc1cc(C)cc(-c2ncccc2-c2ccc3[nH]ncc3c2)c1` [Compound 71, 5-[2-(3,5-Dimethylphenyl)pyridin-3-yl]-1H-indazole] has an IC50 of 7.01 µM. For `N#Cc1cnc2ccc(-c3cccnc3-c3ccc(F)cc3)cn12` [compound 625, 6-(2-(4-Fluorophenyl)pyridin-3-yl)imidazo[1,2-a]pyridine-3-carbonitrile], the IC50 was 7.79 µM. `c1cc(-c2ncccc2-c2ccn3cncc3c2)cc(C2CC2)c1` [compound 596, 7-(2-(3-Cyclopropylphenyl)pyridin-3-yl)imidazo[1,5-a]pyridine] showed an IC50 of 0.204 µM. With `Fc1ccc(Cl)cc1-c1ncccc1-c1ccn2nccc2c1` [compound 761, 5-(2-(5-Chloro-2-fluorophenyl)pyridin-3-yl)pyrazolo[1,5-a]pyridine] the IC50 was 0.131 µM. `Fc1ccc(Cl)cc1-c1ncccc1-c1ccc2nccnc2n1` [compound 742, 6-(2-(5-Chloro-2-fluorophenyl)pyridin-3-yl)pyrido[2,3-b]pyrazine] was tested, and the IC50 was 1.82 µM. `CCn1cnc2ccc(-c3cccnc3-c3cccc(C)c3)cc21` [Compound 43, 1-Ethyl-6-(2-m-tolylpyridin-3-yl)-1H-benzo[d]imidazole] was tested, and the IC50 was 1.62 µM. For `Cc1cccc(-c2ncccc2-c2ccc3nccnc3c2)c1` [compound 540, 6-(2-(m-Tolyl)pyridin-3-yl)quinoxaline], the IC50 was 0.426 µM. Work on `Cc1cnc(-c2cccc(Cl)c2)c(-c2ccn3ncnc3c2)c1` [compound 868, 7-(2-(3-Chlorophenyl)-5-methylpyridin-3-yl)-[1,2,4]triazolo[1,5-a]pyridine] yielded an IC50 of 0.404 µM. With `Cc1cc(-c2ncccc2-c2ccc3nncn3c2)ccc1F` [Compound 161, 6-(2-(4-Fluoro-3-methylphenyl)pyridin-3-yl)-[1,2,4]triazolo[4,3-a]pyridine] the IC50 was 9.1 µM. In the case of `N#Cc1cc(-c2ncccc2-c2ccc3ncc(C#N)n3c2)ccc1F` [compound 628, 6-(2-(3-Cyano-4-fluorophenyl)pyridin-3-yl)imidazo[1,2-a]pyridine-3-carbonitrile], the IC50 is reported as 1.71 µM. Work on `Cc1ccc(C(F)(F)F)cc1-c1ncccc1-c1ccn2ncnc2c1` [compound 878, 7-(2-(2-Methyl-5-(trifluoromethyl)phenyl)pyridin-3-yl)-[1,2,4]triazolo[1,5-a]pyridine] yielded an IC50 of 10.2 µM. In the case of `Cc1cc(-c2ncccc2-c2ccn3ncc(C(=O)NC4CC5CCC(C4)N5C)c3c2)ccc1F` (racemic) [compound 714, rac-5-(2-(4-Fluoro-3-methylphenyl)pyridin-3-yl)-N-(8-methyl-8-azabicyclo[3.2.1]octan-3-yl)pyrazolo[1,5-a]pyridine-3-carboxamide], the IC50 is reported as 5.66 µM. Molecule `Cc1cc(-c2ncccc2-c2ccn3ncc(C(=O)NCC4CCN(C)CC4)c3c2)ccc1F` [compound 656, 5-(2-(4-Fluoro-3-methylphenyl)pyridin-3-yl)-N-((1-methylpiperidin-4-yl)methyl)pyrazolo[1,5-a]pyridine-3-carboxamide] has an IC50 of 0.55 µM. In the case of `Cc1cc(-c2ncccc2-c2ccc3ncc(C(=O)Nc4ccc(C(N)=O)cc4)n3c2)ccc1F` [compound 618, N-(4-Carbamoylphenyl)-6-(2-(4-fluoro-3-methylphenyl)pyridin-3-yl)imidazo[1,2-a]pyridine-3-carboxamide], the IC50 is reported as 1.12 µM. `N#CCOc1cccc(-c2ncccc2-c2ccc3ncnc(N)c3c2)c1` [compound 481, 2-(3-(3-(4-Aminoquinazolin-6-yl)pyridin-2-yl)phenoxy)acetonitrile] gave an IC50 of 1.28 µM. Work on `Cc1cc(-c2ncc(NCc3ccc(O)c(C(F)(F)F)c3)cc2-c2ccc3ncsc3c2)ccc1F` [compound 370, 4-(((5-(Benzo[d]thiazol-6-yl)-6-(4-fluoro-3-methylphenyl)pyridin-3-yl)amino)methyl)-2-(trifluoromethyl)phenol] yielded an IC50 of 0.411 µM. `Cc1cnc2ccc(-c3cccnc3-c3cccc(Cl)c3)cn12` [compound 765, 6-(2-(3-Chlorophenyl)pyridin-3-yl)-3-methylimidazo[1,2-a]pyridine] showed an IC50 of 0.096 µM. For `Nc1ncnc2ccc(-c3cccnc3-c3ccc(F)cc3F)cc12` [compound 455, 6-(2-(2,4-Difluorophenyl)pyridin-3-yl)quinazolin-4-amine], the IC50 was 1.16 µM. Work on `Cc1cc(-c2ncccc2-c2ccc3cnccc3c2)ccc1F` [compound 249, 6-(2-(4-Fluoro-3-methylphenyl)pyridin-3-yl)isoquinoline] yielded an IC50 of 8.83 µM. For `FC(F)(F)c1cccc(-c2ncccc2-c2ccn3ncnc3c2)c1` [compound 879, 7-(2-(3-(Trifluoromethyl)phenyl)pyridin-3-yl)-[1,2,4]triazolo[1,5-a]pyridine], the IC50 was 1.48 µM. `FC(F)Oc1cccc(-c2ncccc2-c2ccn3nccc3n2)c1` [compound 921, 5-(2-(3-(Difluoromethoxy)phenyl)pyridin-3-yl)pyrazolo[1,5-a]pyrimidine] gave an IC50 of 0.0706 µM. Molecule `Fc1ccc(-c2ncccc2-c2ccn3nccc3n2)cc1Cl` [compound 914, 5-(2-(3-Chloro-4-fluorophenyl)pyridin-3-yl)pyrazolo[1,5-a]pyrimidine] has an IC50 of 0.126 µM. With `Nc1cnc(-c2cccc(C3CC3)c2)c(-c2ccc3ncsc3c2)c1` [Compound 19, 5-(Benzo[d]thiazol-6-yl)-6-(3-cyclopropylphenyl)pyridin-3-amine] the IC50 was 0.083 µM. `N#Cc1cccc(-c2ncccc2-c2ccc3ncc(C#N)n3c2)c1` [compound 627, 6-(2-(3-Cyanophenyl)pyridin-3-yl)imidazo[1,2-a]pyridine-3-carbonitrile] gave an IC50 of 1.26 µM. For `Cc1cc(-c2ncccc2-c2ccn3ncc(C(=O)NC4CCN(C)CC4)c3c2)ccc1F` [compound 655, 5-(2-(4-Fluoro-3-methylphenyl)pyridin-3-yl)-N-(1-methylpiperidin-4-yl)pyrazolo[1,5-a]pyridine-3-carboxamide], the IC50 was 0.245 µM.

Source: patent US10858335B2 (Rigel Pharmaceuticals, Inc., priority 2014, dated 2020)
